Measurements published in patent US10548894B2, “Combination therapy” (Array BioPharma Inc., priority 2013, dated 2020).

Legend:
Assay in all cases: 72 hr cell titer Glo proliferation assay, BRAFV600E mutant CRC cell lines
Type in all cases: cell-based
HT-29 = HT-29 (PI3Kα mutation), single agent
Description: (§1) Single agent and combinatorial effects on proliferation of inhibitors of RAF (Compound of Formula (I)) and PIK3Ca (Compound X) kinases in seven BRAF-mutant CRC-derived cell lines. All cell lines express the BRAFV600E protein. Cells harboring known or putative activating mutations in the PI3Kα gene are marked with a (*) and cells with PTEN loss marked with a (#). Cell proliferation was measured in 72 hr cell titer Glo™ assays and all results supplied are the result of at least triplicate measurements. Shown are single agent IC50 values for the Compound of Formula (I) and Compound X. Synergy score (SS) measurements as well as the combination index (C150) at the 50% effect level are given for each combination) in Table 6. Interactions were deemed synergistic when SS values were ≥2.0 and CI values were ≤0.5. Interactions were deemed additive/synergistic when either SS values were ≥2.0 but CI values were >0.5 or SS values were <2.0 but CI values were ≤0.5. Interactions where termed additive when SS values were <2.0 and CI values were >0.5. Synergy calls are given in the “effect description” columns.

SW1417 = settings: SW1417, single agent
Description: as §1

SNU-C5 = SNU-C5 (PI3Kα mutation), single agent
Description: as §1

RKO = RKO (PI3Kα mutation), single agent
Description: as §1

COLO 205 = settings: COLO 205, single agent
Description: as §1

CL-34 = settings: CL-34, single agent
Description: as §1

OUMS-23 = OUMS-23 (PTEN loss), single agent
Description: as §1

LS411N = settings: single agent
Description: as §1

- IC50 (HT-29): > 2700 nM
- IC50 (SW1417): > 2700 nM
- IC50 (SNU-C5): > 2700 nM
- IC50 (COLO 205): > 2700 nM
Compound: Cc1nc(NC(=O)N2CCC[C@H]2C(N)=O)sc1-c1ccnc(C(C)(C)C(F)(F)F)c1 [Compound X, (S)-Pyrrolidine-1,2-dicarboxylic acid 2-amide 1-({4-methyl-5-[2-(2,2,2-trifluoro-1,1-dimethyl-ethyl)-pyridin-4-yl]-thiazol-2-yl}-amide)]
- IC50 (RKO): > 2700 nM
- IC50 (CL-34): > 2700 nM
- IC50 (OUMS-23): > 2700 nM
- IC50 (LS411N): > 2700 nM
